{"source": "patent US20120208781A1", "about": "“AMINOGLYCOSIDE DOSING REGIMENS” (Achaogen, Inc., priority 2009, published 2012)", "test_system": "E. coli (EC)", "assay": "MIC, broth microdilution, Brooklyn hospital isolates: E. coli", "format": "cell-based", "details": "Escherichia coli; EC (n = 32)", "description": "In another study, the activity of Compound 1 against a collection of contemporary Gram-negative bacteria was determined. Unique patient isolates of P. aeruginosa (PA), A. baumannii (AB), K. pneumoniae (KP), E. coli (EC), and Enterobacter spp. (EB) from prior surveys at 16 Brooklyn, N.Y. hospitals were selected based on resistance patterns. The majority of isolates were fingerprinted by automated ribotyping. MICs were performed by broth microdilution. PCR was used to identify aminoglycoside-modifying enzymes (AMEs) in AB and KP and the KPC gene in Enterobacteriaceae (EN). The expression of the efflux genes mexA, C, E and X in PA, and adeB in AB was assessed by real-time RT-PCR."}
{"smiles": "CN[C@@H]1[C@@H](O)[C@@H](O[C@@H]2[C@@H](O)[C@H](O[C@H]3OC(CNCCO)=CC[C@H]3N)[C@@H](N)C[C@H]2NC(=O)[C@@H](O)CCN)OC[C@]1(C)O", "note": "[Compound 1, 6′-(2-Hydroxy-ethyl)-1-(4-amino-2(S)-hydroxy-butyryl)-sisomicin]", "values": [{"measurement": "MIC50", "result": 1, "unit": "µg/mL"}, {"measurement": "MIC90", "result": 2, "unit": "µg/mL"}]}
